Activity calls are given as the source filed them. The calls are words filed in the database; no cut-off is given here.
Assays:
[1] = test system: Mus musculus; assay: Antiinflammatory activity in albino mouse assessed as inhibition of carrageenan-induced paw edema at 80 mg/kg, ip administered 1 hr before carrageenan challenge measured after 3 hrs; type: functional; conditions: route intraperitoneal
[2] = test system: Mus musculus; assay: Antiinflammatory activity in albino mouse assessed as inhibition of carrageenan-induced paw edema at 250 mg/kg, po administered 1 hr before carrageenan challenge measured after 3 hrs; type: functional
[3] = test system: Mus musculus; assay: Antiinflammatory activity in albino mouse assessed as inhibition of carrageenan-induced paw edema at 75 mg/kg, ip administered 1 hr before carrageenan challenge measured after 3 to 7 hrs; type: functional; conditions: route intraperitoneal
[4] = test system: Mus musculus; assay: Antiinflammatory activity in po dosed albino mouse assessed as inhibition of carrageenan-induced paw edema administered 1 hr before carrageenan challenge measured; type: functional, organism-based
[5] = test system: Mus musculus; assay: Antiinflammatory activity in albino mouse assessed as inhibition of carrageenan-induced paw edema at 125 mg/kg, po administered 1 hr before carrageenan challenge measured after 3 to 7 hrs; type: functional, organism-based; design: dose 125 mg/kg
[6] = test system: Mus musculus; assay: Antiinflammatory activity in albino mouse assessed as inhibition of carrageenan-induced paw edema at 100 mg/kg, po administered 1 hr before carrageenan challenge measured after 3 hrs; type: functional

| SMILES | inhibition in vivo at 80 mg/kg [1] [%] | inhibition in vivo at 250 mg/kg [2] [%] | inhibition in vivo at 75 mg/kg [3] [%] | Activity [4] | Activity [5] | inhibition in vivo at 100 mg/kg [6] [%] |
| --- | --- | --- | --- | --- | --- | --- |
| C=C[C@@]1(CO)CC[C@H]2[C@]3(C)CCCC(C)(C)[C@H]3CC[C@]2(C)O1 | 63.5 | 55.8 | 60.1 | Dose-dependent effect | Active |  |
| CCCCC1C(=O)N(c2ccccc2)N(c2ccccc2)C1=O [PHENYLBUTAZONE] |  |  |  |  |  | 47.7 |

From ChEMBL document CHEMBL1147310, “Anti-inflammatory compounds from Sideritis javalambrensis n-hexane extract” (1989)
